Assay results from article PMC6920997, “Total Phenolic and Flavonoid Content and Biological Activities of Extracts and Isolated Compounds of Cytisus villosus Pourr” (Biomolecules, 2019).
In brackets after ≈: the same amount, converted by molar mass.

Assays:
[1] = tested on: iNOS; experiment: Inhibition of iNOS (intracellular NO production) in RAW 264.7 macrophages; type: cell-based; settings: Mus musculus, RAW264.7; RAW 264.7 cells; NA = no activity at 25 µg/mL (pure compounds) or 100 µg/mL (extracts)
Protocol: The extracts and isolated compounds of C. villosus were evaluated in terms of their interaction with cellular targets related to inflammation and metabolic disorders, such as iNOS and NF-κB. The inhibition of intracellular NO production as a result of iNOS activity was assayed in mouse macrophages (RAW 264.7cells). Cytotoxicity of test samples to macrophages was also determined in parallel to check if the inhibition of iNOS was due to cytotoxic effects.

[2] = tested on: NF-κB; experiment: Reporter gene assay for the inhibition of NF-κB; type: cell-based; settings: PMA-treated cells, luciferase reporter; NA = no activity at 25 µg/mL (pure compounds) or 100 µg/mL (extracts); read-out: Inhibition of NF-kB IC50
Protocol: Reporter gene assay for the inhibition of NF-κB Activity was performed as described earlier. In brief, cells transfected with NF-κB luciferase plasmid construct were plated in 96-well plates at a density of 1.25 × 10^5 cells/well. After 24 h, cells were treated with the test compounds and, after incubating for 30 min, phorbol 12-myristate 13-acetate (PMA) (Sigma-Aldrich, Burlington MA, USA) (70 ng/mL) was added and further incubated for 6−8 h. Luciferase activity was measured as described above. Percent decrease in luciferase activity was calculated relative to the vehicle control. Parthenolide (Sigma-Aldrich, Burlington MA, USA) was used as a positive control.

[3] = tested on: Candida albicans; experiment: Antifungal assay C. albicans; type: cell-based; settings: pure compounds
Protocol: (§1) Extracts and pure compounds were tested for their antimicrobial activity against Staphylococcus aureus, methicillin-resistant S. aureus (MRSA), Escherichia coli, Pseudomonas aeruginosa, and Mycobacterium intracellulare. The antifungal activities were evaluated against a panel of pathogenic fungi, including Candida albicans, C. glabrata, C. krusei, Aspergillus fumigatus, and Cryptococcus neoformans, associated with opportunistic infections.

[4] = tested on: Cryptococcus neoformans; experiment: Antifungal assay C. neoformans; type: cell-based; settings: pure compounds
Protocol: as §1

[5] = tested on: Staphylococcus aureus; experiment: Antibacterial assay S. aureus; type: cell-based; settings: pure compounds
Protocol: as §1

[6] = tested on: Escherichia coli; experiment: Antibacterial assay E. coli; type: cell-based; settings: pure compounds
Protocol: as §1

[7] = tested on: Pseudomonas aeruginosa; experiment: Antibacterial assay P. aeruginosa; type: cell-based; settings: pure compounds
Protocol: as §1

[8] = tested on: P. falciparum (D6 Clone); experiment: Antimalarial assay, chloroquine-sensitive D6 clone; type: cell-based, Plasmodium falciparum; settings: selectivity index = IC50 for cytotoxicity/IC50 for antimalarial activity
Source text: (§2) The in vitro antileishmanial and antitrypanosomal assays were done on cell cultures of L. donovani promastigotes, axenic amastigotes, THP1-amastigotes, and Trypanosoma brucei trypomastigotes by Alamar Blue assays. The conditions for seeding the THP1 cells, exposure to the test samples, and evaluation of cytotoxicity were the same as described in parasite-rescue and transformation assay. IC50 and IC90 values were computed from the dose response curves using XLfit software (XLfit 5.3.1, IDBS analytical, Boston MA, USA). DFMO (difluoromethylornithine) was used as the positive control. The antiprotozoal activity of C. villosus extracts and isolated compounds were evaluated in vitro against L. donovani promastigotes, axenic amastigotes, and intracellular amastigotes in THP1 cells. The extracts and some isolated compounds were also evaluated against T. brucei trypomastigote forms. All the extracts and compounds were simultaneously tested against THP1 cell for determination of general cytotoxicity. The extracts and isolated compounds were also evaluated for their antimalarial activity against chloroquine-sensitive (D6, Sierra Leone) and chloroquine-resistant strains (W2, Indochina) strains of Plasmodium falciparum. Furthermore, they were tested for cytotoxicity against the Vero cell line.

[9] = tested on: P. falciparum (W2 Clone); experiment: Antimalarial assay, chloroquine-resistant W2 clone; type: cell-based, Plasmodium falciparum; settings: selectivity index = IC50 for cytotoxicity/IC50 for antimalarial activity
Source text: as §2

[10] = Cytotoxicity against Vero cell line (antimalarial counterscreen); type: cell-based; settings: African green monkey
Source text: as §2

[11] = biological target: δ opioid receptor (Homo sapiens, UniProt P41143); experiment: Radioligand displacement δ opioid receptor; type: binding
[12] = biological target: κ opioid receptor (Homo sapiens, UniProt P41145); type: binding
[13] = biological target: μ opioid receptor (Homo sapiens, UniProt P35372); type: binding
Sequence of μ opioid receptor (P35372 whole entry): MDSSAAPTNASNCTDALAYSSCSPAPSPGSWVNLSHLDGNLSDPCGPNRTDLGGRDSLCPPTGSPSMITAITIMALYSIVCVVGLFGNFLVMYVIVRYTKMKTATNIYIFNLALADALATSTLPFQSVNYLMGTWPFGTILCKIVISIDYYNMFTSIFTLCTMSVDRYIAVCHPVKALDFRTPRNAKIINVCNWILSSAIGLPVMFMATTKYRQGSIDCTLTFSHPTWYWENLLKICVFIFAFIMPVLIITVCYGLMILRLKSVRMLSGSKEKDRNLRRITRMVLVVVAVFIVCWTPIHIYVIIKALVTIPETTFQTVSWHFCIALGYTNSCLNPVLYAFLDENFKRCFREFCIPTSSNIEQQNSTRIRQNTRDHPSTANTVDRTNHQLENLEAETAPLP

Sequence of κ opioid receptor (P41145 whole entry): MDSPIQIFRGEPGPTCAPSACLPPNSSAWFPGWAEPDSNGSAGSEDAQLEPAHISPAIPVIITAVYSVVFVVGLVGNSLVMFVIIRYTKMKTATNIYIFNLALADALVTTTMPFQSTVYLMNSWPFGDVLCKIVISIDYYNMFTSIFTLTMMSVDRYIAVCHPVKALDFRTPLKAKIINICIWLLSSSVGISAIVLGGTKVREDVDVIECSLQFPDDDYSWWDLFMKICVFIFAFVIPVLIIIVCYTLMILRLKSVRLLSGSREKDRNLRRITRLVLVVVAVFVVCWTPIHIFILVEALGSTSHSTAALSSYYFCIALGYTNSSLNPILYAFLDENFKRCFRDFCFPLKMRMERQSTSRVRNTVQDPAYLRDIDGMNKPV
Sequence of δ opioid receptor (P41143 whole entry): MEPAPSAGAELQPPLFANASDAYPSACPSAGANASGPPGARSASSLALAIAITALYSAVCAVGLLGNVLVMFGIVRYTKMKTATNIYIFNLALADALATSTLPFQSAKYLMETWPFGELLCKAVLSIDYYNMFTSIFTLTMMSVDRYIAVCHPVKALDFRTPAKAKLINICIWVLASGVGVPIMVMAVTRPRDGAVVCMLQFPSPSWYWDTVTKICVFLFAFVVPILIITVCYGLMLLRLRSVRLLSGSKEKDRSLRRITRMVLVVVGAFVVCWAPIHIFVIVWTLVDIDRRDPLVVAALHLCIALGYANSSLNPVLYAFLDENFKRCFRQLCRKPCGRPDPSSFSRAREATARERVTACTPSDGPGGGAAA

O=c1cc(-c2ccccc2)oc2cc(O)cc(O)c12 [Compound 2, chrysin]
IC50 [1]: > 25 µg/mL | IC50 [2]: 38 µg/mL (≈ 149 µM) | IC50 [3]: > 20 µg/mL | IC50 [4]: > 20 µg/mL | IC50 [5]: > 20 µg/mL | IC50 [6]: > 20 µg/mL | IC50 [7]: > 20 µg/mL | SI (first SI column of Table 7, presumably D6) [8]: 1 | SI (second SI column of Table 7, presumably W2) [9]: 1 | IC50 [10]: > 4.76 µg/mL | Opioid Receptors (%) δ radioligand displacement [11]: 8.7% | Opioid Receptors (%) κ radioligand displacement [12]: 12.8% | Opioid Receptors (%) μ radioligand displacement [13]: 12.2%
